# Data: ChEMBL document CHEMBL5104132, “Identification of sugar-containing natural products that interact with i-motif DNA” (Bioorg Med Chem Lett, 2022)
# pKd: −log10 of the molar value.
# Legend:
# Assay type in all cases: nucleic-acid assay
# [1] = tested on: Quadruplex DNA; test: Binding affinity to human telomeric IKF1 G4 quadruplex DNA assessed as change in melting temperature at 20 uM at pH 7.4 by FRET assay
# [2] = tested on: i-motif DNA; test: Binding affinity to human telomeric 1ELN i-motif DNA assessed as change in melting temperature at 20 uM at pH 7.4 by FRET assay
# [3] = tested on: i-motif DNA; test: Binding affinity to human telomeric 1ELN i-motif DNA assessed as change in melting temperature at 20 uM at pH 5.5 by FRET assay
# [4] = tested on: Quadruplex DNA; test: Binding affinity to human ILPR G4 quadruplex DNA assessed as change in melting temperature at 20 uM at pH 7.4 by FRET assay
# [5] = tested on: i-motif DNA; test: Binding affinity to human ILPR i-motif DNA assessed as change in melting temperature at 20 uM at pH 7.4 by FRET assay
# [6] = tested on: i-motif DNA; test: Binding affinity to human ILPR i-motif DNA assessed as change in melting temperature at 20 uM at pH 5.5 by FRET assay
# [7] = tested on: dsDNA; test: Binding affinity to human 1BNA double stranded DNA assessed as change in melting temperature at 20 uM at pH 7.4 by FRET assay
# [8] = tested on: Quadruplex DNA; test: Displacement of thiazole orange from human telomeric IKF1 G4 quadruplex DNA at 10 equiv. at pH 7.4 by fluorescent intercalator displacement assay
# [9] = tested on: Quadruplex DNA; test: Displacement of thiazole orange from human telomeric IKF1 G4 quadruplex DNA at 100 equiv. at pH 7.4 by fluorescent intercalator displacement assay
# [10] = tested on: i-motif DNA; test: Displacement of thiazole orange from human telomeric 1ELN i-motif DNA at 10 equiv. at pH 7.4 by fluorescent intercalator displacement assay
# [11] = tested on: i-motif DNA; test: Displacement of thiazole orange from human telomeric 1ELN i-motif DNA at 100 equiv. at pH 7.4 by fluorescent intercalator displacement assay
# [12] = tested on: i-motif DNA; test: Displacement of thiazole orange from human telomeric 1ELN i-motif DNA at 10 equiv. at pH 5.5 by fluorescent intercalator displacement assay
# [13] = tested on: i-motif DNA; test: Displacement of thiazole orange from human telomeric 1ELN i-motif DNA at 100 equiv. at pH 5.5 by fluorescent intercalator displacement assay
# [14] = tested on: Quadruplex DNA; test: Displacement of thiazole orange from human ILPR G4 quadruplex DNA at 10 equiv. at pH 7.4 by fluorescent intercalator displacement assay
# [15] = tested on: Quadruplex DNA; test: Displacement of thiazole orange from human ILPR G4 quadruplex DNA at 100 equiv. at pH 7.4 by fluorescent intercalator displacement assay
# [16] = tested on: i-motif DNA; test: Displacement of thiazole orange from human ILPR i-motif DNA at 10 equiv. at pH 7.4 by fluorescent intercalator displacement assay
# [17] = tested on: i-motif DNA; test: Displacement of thiazole orange from human ILPR i-motif DNA at 100 equiv. at pH 7.4 by fluorescent intercalator displacement assay
# [18] = tested on: i-motif DNA; test: Displacement of thiazole orange from human ILPR i-motif DNA at 10 equiv. at pH 5.5 by fluorescent intercalator displacement assay
# [19] = tested on: i-motif DNA; test: Displacement of thiazole orange from human ILPR i-motif DNA at 100 equiv. at pH 5.5 by fluorescent intercalator displacement assay
# [20] = tested on: dsDNA; test: Displacement of thiazole orange from human 1BNA double stranded DNA at 10 equiv. at pH 7.4 by fluorescent intercalator displacement assay
# [21] = tested on: dsDNA; test: Displacement of thiazole orange from human 1BNA double stranded DNA at 100 equiv. at pH 7.4 by fluorescent intercalator displacement assay
# [22] = target: i-motif DNA; test: Binding affinity to human telomeric i-motif DNA by SPR analysis
# [23] = target: i-motif DNA; test: Binding affinity to human c-Myc promoter i-motif DNA by SPR analysis
# [24] = target: dsDNA; test: Binding affinity to human double stranded DNA by SPR analysis
SMILES,ΔTm [1] [°C],ΔTm [2] [°C],ΔTm [3] [°C],ΔTm [4] [°C],ΔTm [5] [°C],ΔTm [6] [°C],ΔTm [7] [°C],Activity [8] [%],Activity [9] [%],Activity [10] [%],Activity [11] [%],Activity [12] [%],Activity [13] [%],Activity [14] [%],Activity [15] [%],Activity [16] [%],Activity [17] [%],Activity [18] [%],Activity [19] [%],Activity [20] [%],other results
O=c1ccc2cc(O[C@@H]3O[C@H](CO)[C@@H](O)[C@H](O)[C@H]3O)c(O)cc2o1,-7.6,-6.4,-0.4,-2.4,-2.6,0,-2.7,–,–,–,–,–,–,–,–,–,–,–,–,–,–
O=C(O)C1=CO[C@@H](O[C@@H]2O[C@H](CO)[C@@H](O)[C@H](O)[C@H]2O)[C@@H]2C(CO)=CC[C@H]12,-4.7,-2.5,-0.5,-3.6,-2.2,-0.3,-4.8,23,25.2,2.6,-37.8,-10.2,22.9,4.1,1.4,12.3,22,-3.5,25.3,6.4,Activity [21]: 9.6%
O=c1c(-c2ccc(O)cc2)coc2cc(O[C@@H]3O[C@H](CO)[C@@H](O)[C@H](O)[C@H]3O)ccc12,-2.4,0,-0.3,-1.8,-2.4,-0.1,-2.3,20.9,29,14.9,-154,-4.2,20.3,2.6,2.4,20,28.9,-2.5,22.6,7,Activity [21]: 10.9%
O=C(O)[C@H]1O[C@@H](Oc2cc3oc(-c4ccccc4)cc(=O)c3c(O)c2O)[C@H](O)[C@@H](O)[C@@H]1O,-1.8,-3.9,-0.4,-3.8,-2.6,-0.3,-2.5,24,46.3,-3.8,-91.2,12.2,36.5,4.9,17.7,23.9,38.5,9.5,35.3,8.2,Activity [21]: 25.3%
NC[C@H]1O[C@H](O[C@H]2[C@H](O)[C@@H](O[C@H]3O[C@H](CO)[C@@H](O)[C@H](N)[C@H]3O)[C@H](N)C[C@@H]2N)[C@H](N)C[C@@H]1O [TOBRAMYCIN],–,–,–,–,–,–,–,–,–,–,–,–,–,–,–,–,–,–,–,–,pKd [22]: 4.77; pKd [23]: 4.89; pKd [24]: 4.74
OC[C@H]1O[C@@H](O[C@@H]2[C@@H](CO)O[C@](O)(CO)[C@H]2O)[C@H](O)[C@@H](O)[C@H]1O,-4,-3.7,-0.4,-4.6,-2.7,-0.3,-2.7,21.4,26.1,-54,-68,-28.4,20.2,0.9,0.4,26.7,34.7,-5,23.1,4.3,Activity [21]: 9%
O=c1c(-c2ccc(O)cc2)coc2cc(O[C@@H]3O[C@H](CO)[C@@H](O)[C@H](O)[C@H]3O)cc(O)c12,-6.6,-5.4,-0.8,-4.7,-2.4,-0.4,-3,20.8,28.7,16.2,-288,0.6,19.3,1.6,6.4,24.2,31.8,5.3,23.5,6.2,Activity [21]: 14.5%
COC(=O)C1=CO[C@@H](O[C@@H]2O[C@H](CO)[C@@H](O)[C@H](O)[C@H]2O)[C@@H]2C(CO)=CC[C@H]12,-6.1,-1.8,-0.5,-2.9,-1.8,-0.1,-3.5,23.1,25.7,-32,-84.1,-9.5,32.3,-6.7,1.8,21.2,31.8,7.2,27.9,8.5,Activity [21]: 11.2%
